# Measured values published in patent publication EP2292587A1, “PHARMACEUTICAL COMPOSITION FOR INHIBITING THE TRANSCRIPTION FACTOR INDUCIBLE BY HYPOXIA, MODULATORS OF PATHOLOGICAL PROCESSES OF ANGIOGENESIS, ONCOGENESIS, INFLAMMATION, APOPTOSIS, AND CELLULAR THERAPY” (Fundacion De La Comunidad Valenciana Centro De …, priority 2008, dated 2009).
# What was measured:
# Type in all cases: cell-based, human
# [1] = test system: VEGF and COX-2; test: qPCR of VEGF and COX-2 in dental pulp stem cells; conditions: 0.5 µM
# Text: The culture medium used was Low-Glucose DMEM supplemented with 10% fetal bovine serum. The human dental pulp mesenchymal stem line [Gronthos S, et al., "Postnatal human dental pulp stem cells (DPSCs) in vitro and in vivo" Proc Natl Acad Sci U S A, 2000 Dec 5; 97(25):13625-30.; Gronthos S et al.,." Stem cell properties of human dental pulp stem cells" J Dent Res, 2002 Aug; 81(8):531-5], obtained from human third molars from adults (19-29 years of age), was provided by the Cardioregeneration Dept. of the CIPF. The cells were seeded at a density of 2000 cells/cm^2, and when they reached a 90% confluence they were subcultured again by means of trypsinization.
# Total RNA was isolated using the commercial kit RNAeasy (Qiagen) and following the manufacturer's instructions. 1 µg of total RNA of each sample was retrotranscribed using the commercial kit Reverse Transcription Reagent (Applied Biosystem). The quantitative polymerase chain reaction (qPCR) was carried out using Taqman probes and primers designed by Applied Biosystem for hsVEGF (Ref HS00173626_m1), hsCOX-2 (Ref Hs00153133_m1) and hsGAPDH (Ref HS 99999905_m1). […] The expression levels of VEGF and COX-2 were expressed as the increase of Ct with respect to the expression levels of GAPDH (constitutive expression gene): Ct (ΔCt)=Ct (VEGF or […])-Ct (GAPDH). […]
# [2] = test system: ATR; test: activation kinetics of ATR (Western blot), HCT116/p53+/+; conditions: 0.5 µM, after 1 hour
# Text: To determine the degree of involvement of p53 in the possible effects caused by FM19G11, a HCT116 colon cancer cell line with expression of p53 and the same HCT116 line in which p53 was inactivated by homologous recombination were used (Bunz, F, Dutriaux, A, Lengauer, C, Waldman, T, Zhou, S, Brown, JP et al., (1998) Requirement for p53 and p21 to sustain G2 arrest after DNA damage. Science 282: 1497-501; Bunz, F, Hwang, PM, Torrance, C, Waldman, T, Zhang, Y, Dillehay, L et al., (1999) Disruption of p53 in human cancer cells alters the responses to therapeutic agents. J Clin Invest 104: 263-9.). The HCT116/p53^+/+ and HCT116/p53^-/- cells were exposed to FM19G11 (0.5 µM) at different times, the phosphorylation (activation) pattern of the ATR protein and of p53 which can be phosphorylated by ATR (Tibbetts, RS, Brumbaugh, KM, Williams, JM, Sarkaria, JN, Cliby, WA, Shieh, SY et al., (1999) A role for ATR in the DNA damage-induced phosphorylation of p53. Genes Dev 13: 152-7.), in p53-proficient HCT116 cells, as well as ATR in p53-deficient cells being analyzed (Figure 23). […] This quick activation of ATR coincides with that of p53 in HCT116/p53^+/+ cells after 1 hour of treatment with FM19G11 (0.5 µM), but the activation of p53 remains virtually on the expression of cells without drug, for the different times analyzed.
# [3] = test system: HCT116/p53-/- cells; test: cell viability by ATP quantification in colon cancer cells; conditions: 48 hours, 0.5-1000 µM
# Description: To determine the effects of FM19G11 on human colon cancer cells (HCT116 and HT29), cell viability assays were carried out in HT29, HCT116/p53^+/+ and HCT116/p53^-/- cells by means of quantifying the ATP which associates with metabolically active cells.
# [4] = test system: HCT116/p53+/+; test: anchorage-independent growth in semisolid agar, HCT116/p53+/+; conditions: 0.5 µM, 10 days, versus DMSO, p ≤ 0.033
# Description: Anchorage-independent cell growth is a study which allows predicting the tumorigenicity of tumor cells in vivo. Anchorage-independent cell growth studies were performed for HT29, HCT116/p53^+/+ and HCT116/p53^-/- cells in semisolid agar which were monitored daily to determine the efficiency of the formation of colonies in the presence of carrier (DMSO) or FM19G11. To that end, the starting material was 75 x 10^3 cells suspended in semisolid agar, which were maintained until 10 days later. […] A reduction of the formation of colonies in the HCT116/p53^-/- cells is not observed. The growth of colonies was quantified in three independent experiments by means of counting colonies in the 4 x magnification optical field of an inverted optical microscope.
structure (smiles),measurement,setting,value
"Cc1ccc(C(=O)COC(=O)c2cccc(NC(=O)c3ccc([N+](=O)[O-])cc3[N+](=O)[O-])c2)cc1 [FM19G11, 2-oxo-2-(p-tolyl)ethyl 3-((2,4-dinitro)benzamido)benzoate]",increase of both VEGF and COX-2 (mRNA),"[1]; hypoxic conditions, 6 and 18 hours",inhibited
same,expression levels of VEGF and COX-2,[1]; normoxic conditions,did not cause any effect
same,phosphorylation of ATR,[2],quick increase
same,"sensitivity (cell viability, ATP) compared to HCT116/p53+/+ or HT29",[3],less sensitive
same,growth of colonies in semisolid agar,[4],significant decrease
